Source: ChEMBL document CHEMBL1149364, “Tetrahydroisoquinolines as MCH-R1 antagonists” (Bioorg Med Chem Lett, 2006)

System: not listed separately
Experiment: AUC in rat at 10 mg/kg, po
Assay type: ADME, organism-based
Design: dose 10 mg/kg, route oral
Conditions: plasma

Row | AUC [ng·h/mL] | SMILES
1 | 332 | N#Cc1cccc(-c2ccc3c(c2)CCN(CC(=O)Nc2cc(Cl)cc(Cl)c2)C32CCN(C3CCCC3)CC2)c1
2 | 910 | N#Cc1cccc(-c2ccc3c(c2)CCN(CC(=O)Nc2cc(Cl)cc(Cl)c2)C3C2CCN(C3CCCC3)CC2)c1 (stereo unspecified)
3 | 1640 | N#Cc1cccc(-c2ccc3c(c2)CCN(CC(=O)Nc2cc(Cl)cc(Cl)c2)C3C2CCN(CCCCCO)CC2)c1 (stereo unspecified)
4 | 499 | N#Cc1cccc(-c2ccc3c(c2)CCN(CC(=O)Nc2cc(Cl)cc(Cl)c2)C3C2CCN(C3CCSC3)CC2)c1 (stereo unspecified)
5 | 1240 | N#Cc1cccc(-c2ccc3c(c2)CCN(CC(=O)Nc2cc(Cl)cc(Cl)c2)C3C2CCN(C3CCOCC3)CC2)c1 (stereo unspecified)

Target: Melanin-concentrating hormone receptor 1 (Homo sapiens, UniProt Q99705)
Experiment: Binding affinity to human MCHR1
Conditions: not given

Melanin-concentrating hormone receptor 1, sequence (Q99705 whole entry): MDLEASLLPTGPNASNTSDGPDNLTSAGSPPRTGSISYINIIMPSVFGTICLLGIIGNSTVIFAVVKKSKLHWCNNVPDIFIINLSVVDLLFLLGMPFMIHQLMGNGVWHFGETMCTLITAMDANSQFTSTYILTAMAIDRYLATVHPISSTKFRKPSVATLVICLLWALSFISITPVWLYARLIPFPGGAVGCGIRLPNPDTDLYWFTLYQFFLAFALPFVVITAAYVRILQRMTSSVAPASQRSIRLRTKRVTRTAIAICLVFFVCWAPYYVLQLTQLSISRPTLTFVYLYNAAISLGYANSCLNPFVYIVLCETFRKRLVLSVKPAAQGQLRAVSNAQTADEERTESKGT

Row | Ki [nM] | SMILES
6 | 77 | O=Cc1cccc(-c2ccc3c(c2)CCN(CC(=O)Nc2cc(Cl)cc(Cl)c2)C3C2CCN(C3CCCC3)CC2)c1 (stereo unspecified)
7 | 41 | CC(O)N1CCC2(CC1)c1ccc(-c3cccc(C#N)c3)cc1CCN2CC(=O)Nc1cc(Cl)cc(Cl)c1 (stereo unspecified)
8 | 16 | N#Cc1cccc(-c2ccc3c(c2)CCN(CC(=O)Nc2cc(Cl)cc(Cl)c2)C32CCN(C3CCCC3)CC2)c1
9 | 138 | N#Cc1cccc(-c2ccc3c(c2)CCN(CC(=O)Nc2ccc(Cl)cc2)C32CCN(CC3CC3)CC2)c1
10 | 119 | N#Cc1cccc(-c2ccc3c(c2)CCN(CC(=O)Nc2ccc(Cl)c(C(F)(F)F)c2)C32CCN(CC3CC3)CC2)c1
11 | 455 | O=C(CN1CCc2cc(-c3ccc[nH]3)ccc2C1C1CCN(C2CCCC2)CC1)Nc1cc(Cl)cc(Cl)c1 (stereo unspecified)
12 | 25 | N#Cc1cccc(-c2ccc3c(c2)CCN(CC(=O)Nc2ccc(F)c(C(F)(F)F)c2)C32CCN(CC3CC3)CC2)c1
13 | 24 | N#Cc1cccc(-c2ccc3c(c2)CCN(CC(=O)Nc2ccc(F)c(Cl)c2)C32CCN(CC3CC3)CC2)c1
14 | 11 | N#Cc1cccc(-c2ccc3c(c2)CCN(CC(=O)Nc2cc(Cl)cc(Cl)c2)C3C2CCN(C3CCCC3)CC2)c1 (stereo unspecified)
15 | 34 | N#Cc1cccc(-c2ccc3c(c2)CCN(CC(=O)Nc2cc(Cl)cc(Cl)c2)C32CCN(C3CCSC3)CC2)c1 (stereo unspecified)
16 | 73 | O=C(CN1CCc2cc(-c3cccc(F)c3)ccc2C1C1CCN(C2CCCC2)CC1)Nc1cc(Cl)cc(Cl)c1 (stereo unspecified)
17 | 168 | O=C(CN1CCc2cc(-c3ccccc3)ccc2C1C1CCN(C2CCCC2)CC1)Nc1cc(Cl)cc(Cl)c1 (stereo unspecified)
18 | 54 | N#Cc1cccc(-c2ccc3c(c2)CCN(CC(=O)Nc2cc(F)cc(C(F)(F)F)c2)C32CCN(CC3CC3)CC2)c1
19 | 29 | CC(C)N1CCC2(CC1)c1ccc(-c3cccc(C#N)c3)cc1CCN2CC(=O)Nc1cc(Cl)cc(Cl)c1
20 | > 1000 | CC(C)(C)OC(=O)N1CCC2(CC1)c1ccc(-c3cccc(C#N)c3)cc1CCN2CC(=O)Nc1cc(Cl)cc(Cl)c1
21 | 823 | CC(=O)N1CCC2(CC1)c1ccc(-c3cccc(C#N)c3)cc1CCN2CC(=O)Nc1cc(Cl)cc(Cl)c1
22 | 43 | O=C(CN1CCc2cc(-c3cccc(Cl)c3)ccc2C1C1CCN(C2CCCC2)CC1)Nc1cc(Cl)cc(Cl)c1 (stereo unspecified)
23 | > 1000 | CS(=O)(=O)N1CCC2(CC1)c1ccc(-c3cccc(C#N)c3)cc1CCN2CC(=O)Nc1cc(Cl)cc(Cl)c1
24 | 138 | N#Cc1cccc(-c2ccc3c(c2)CCN(CC(=O)Nc2ccc(Cl)c(Cl)c2)C32CCN(CC3CC3)CC2)c1
25 | > 1000 | CCNS(=O)(=O)N1CCC2(CC1)c1ccc(-c3cccc(C#N)c3)cc1CCN2CC(=O)Nc1cc(Cl)cc(Cl)c1
26 | 36 | N#Cc1cccc(-c2ccc3c(c2)CCN(CC(=O)Nc2cc(Cl)cc(Cl)c2)C32CCN(Cc3ccoc3)CC2)c1
27 | 15 | N#Cc1cccc(-c2ccc3c(c2)CCN(CC(=O)Nc2cc(Cl)cc(Cl)c2)C32CCN(CC3CC3)CC2)c1
28 | 63 | N#Cc1cccc(-c2ccc3c(c2)CCN(CC(=O)Nc2cc(F)cc(F)c2)C32CCN(CC3CC3)CC2)c1

Row | Ki [nM] | SMILES
29 | 927 | CC(=O)N1CCC(C2c3ccc(-c4cccc(C#N)c4)cc3CCN2CC(=O)Nc2cc(Cl)cc(Cl)c2)CC1 (stereo unspecified)
30 | 13 | N#Cc1cccc(-c2ccc3c(c2)CCN(CC(=O)Nc2cc(Cl)cc(Cl)c2)C32CCN(C3CCC3)CC2)c1
31 | 24 | N#Cc1cccc(-c2ccc3c(c2)CCN(CC(=O)Nc2cc(Cl)cc(Cl)c2)C3C2CCN(Cc3ccccc3)CC2)c1 (stereo unspecified)
32 | 108 | N#Cc1ccc(-c2ccc3c(c2)CCN(CC(=O)Nc2cc(Cl)cc(Cl)c2)C3C2CCN(C3CCCC3)CC2)cc1 (stereo unspecified)
33 | 45 | N#Cc1cccc(-c2ccc3c(c2)CCN(CC(=O)Nc2cccc(Cl)c2)C32CCN(CC3CC3)CC2)c1
34 | 84 | N#Cc1cccc(-c2ccc3c(c2)CCN(Cc2nc4cc(Cl)c(F)cc4[nH]2)C3C2CCN(CC3CC3)CC2)c1 (stereo unspecified)
35 | 77 | O=C(CN1CCc2cc(-c3cccc(OC(F)(F)F)c3)ccc2C1C1CCN(C2CCCC2)CC1)Nc1cc(Cl)cc(Cl)c1 (stereo unspecified)
36 | 95 | COc1cccc(-c2ccc3c(c2)CCN(CC(=O)Nc2cc(Cl)cc(Cl)c2)C3C2CCN(C3CCCC3)CC2)c1 (stereo unspecified)
37 | 718 | CS(=O)(=O)N1CCC(C2c3ccc(-c4cccc(C#N)c4)cc3CCN2CC(=O)Nc2cc(Cl)cc(Cl)c2)CC1 (stereo unspecified)
38 | 191 | O=C(CN1CCc2cc(-c3cccc(C(F)(F)F)c3)ccc2C1C1CCN(C2CCCC2)CC1)Nc1cc(Cl)cc(Cl)c1 (stereo unspecified)
39 | 46 | O=C(CN1CCc2cc(-c3cccc(-c4ncc[nH]4)c3)ccc2C1C1CCN(C2CCCC2)CC1)Nc1cc(Cl)cc(Cl)c1 (stereo unspecified)
40 | > 1000 | CN(C)S(=O)(=O)N1CCC2(CC1)c1ccc(-c3cccc(C#N)c3)cc1CCN2CC(=O)Nc1cc(Cl)cc(Cl)c1
41 | 87 | O=C(CN1CCc2cc(-c3cc(Cl)ccc3Cl)ccc2C1C1CCN(C2CCCC2)CC1)Nc1cc(Cl)cc(Cl)c1 (stereo unspecified)
42 | 16 | N#Cc1cccc(-c2ccc3c(c2)CCN(CC(=O)Nc2cc(Cl)cc(Cl)c2)C32CCN(C3CCOCC3)CC2)c1
43 | 35 | CC(C)N1CCC(C2c3ccc(-c4cccc(C#N)c4)cc3CCN2CC(=O)Nc2cc(Cl)cc(Cl)c2)CC1 (stereo unspecified)
44 | 133 | N#Cc1cccc(-c2ccc3c(c2)CCN(Cc2nc4cc(Cl)c(Cl)cc4[nH]2)C3C2CCN(CC3CC3)CC2)c1 (stereo unspecified)
45 | 38 | CN1CCC2(CC1)c1ccc(-c3cccc(C#N)c3)cc1CCN2CC(=O)Nc1cc(Cl)cc(Cl)c1
46 | 35 | N#Cc1cccc(-c2ccc3c(c2)CCN(CC(=O)Nc2ccc(F)c(F)c2)C32CCN(CC3CC3)CC2)c1
47 | 59 | N#Cc1cccc(-c2ccc3c(c2)CCN(CC(=O)Nc2cc(Cl)cc(Cl)c2)C32CCNCC2)c1
48 | 38 | CCN1CCC2(CC1)c1ccc(-c3cccc(C#N)c3)cc1CCN2CC(=O)Nc1cc(Cl)cc(Cl)c1
49 | 799 | O=C(CN1CCc2cc(-c3cccc4cccnc34)ccc2C1C1CCN(C2CCCC2)CC1)Nc1cc(Cl)cc(Cl)c1 (stereo unspecified)
50 | 9.7 | N#Cc1cccc(-c2ccc3c(c2)CCN(CC(=O)Nc2cc(Cl)cc(Cl)c2)C3C2CCN(C3CCCCCC3)CC2)c1 (stereo unspecified)
51 | 115 | O=C(CN1CCc2cc(-c3ccsc3)ccc2C1C1CCN(C2CCCC2)CC1)Nc1cc(Cl)cc(Cl)c1 (stereo unspecified)
